Measurements published in patent US20250367321A1, “COMPOSITIONS AND METHODS INVOLVING ADGRG6” (The Regents of the University of California, priority 2022, published 2025).

Columns and labels:
[1] = system: adenyl cyclase (AC); test: cAMP levels after treatment with the AC inhibitor; format: cell-based, human; settings: for cAMP levels upon aAdo treatment: basal condition
Source text: (§1) CAMP is a well-known signaling molecule that initiates adipogenesis by increasing protein kinase A (pKA), which then phosphorylates early transcription factors, including C/EBPb. To test whether ADGRG6 might increase cAMP levels in preadipocytes, we measured CAMP levels in WT and ADGRG6 KO human preadipocytes in both basal condition and forskolin which is […], using ELISA. […] We also measured cAMP levels in human preadipocytes that overexpress ADGRG6. […] In order to test whether ADGRG6 can directly affect cAMP levels via adenyl cyclase (AC), that converts ATP to CAMP, we treated ADGRG6 overexpressing preadipocytes with 2′,5′-Dideoxyadenosine (aAdo), an inhibitor of AC. In the basal condition, cAMP levels were reduced in both WT and ADGRG6 overexpressing cells upon aAdo treatment (FIG. 4A). […] Furthermore, we also examined the downstream target of CAMP-PKA, CREB phosphorylation. […] In the stimulated condition, p-CREB increased in WT cells but not in ADGRG6 KO cells (FIG. 4B).

[2] = system: human preadipocytes; test: cAMP levels by ELISA, basal or forskolin-stimulated; format: cell-based; settings: WT human preadipocytes, forskolin treatment
Source text: as §1

Row | SMILES | cAMP levels upon aAdo treatment ([1]; ADGRG6 overexpressing preadipocytes) | increase of cAMP levels in ADGRG6 overexpressing preadipocytes compared to WT ([1]; Ado stimulated condition) [%] | cAMP levels upon aAdo treatment ([1]; WT preadipocytes) | increase in cAMP levels compared to the basal condition [2] [fold]
1 | C[C@H]1O[C@@H](n2cnc3c(N)ncnc32)C[C@@H]1O [aAdo, 2′,5′-Dideoxyadenosine] | reduced | 25 | reduced | –
2 | C=C[C@@]1(C)CC(=O)[C@]2(O)[C@@]3(C)[C@@H](O)CCC(C)(C)[C@@H]3[C@H](O)[C@H](OC(C)=O)[C@@]2(C)O1 [forskolin] | – | – | – | 2
